Laboratory results taken from US9700547B2, “Use of 6-hydroxy-2-pyridones and derivatives thereof for preparing a pharmaceutical composition that acts by inhibiting the human uridine phosphorylase enzyme” (UNIÃO BRASILEIRA DE EDUCAÇÃO E ASSISTÊNCIA, MANTENEDORA DA …, priority 2013, dated 2017).

Experiments:
[1] = tested on: intestinal mucositis caused by 5-FU; assay: intestinal mucositis model caused by 5-FU (weight, diarrhea, villus histology); type: in vivo, female Wistar mouse
Experimental: The compound c3 was tested in in vivo for evaluating its protection regarding intestinal mucositis caused by 5-FU. The mucositis model was developed in female Wistar mouse (180-200 g) and the animals were divided into 5 groups with 4 animals in each group: Group 1: Saline+Saline Group 2: Compound c3 (150 mg/kg)+saline Group 3: Saline+5-FU (50 mg/kg) Group 4: Compound c3 (50 mg/kg)+5-FU (50 mg/kg) Group 5: Compound c3 (150 mg/kg)+5-FU (50 mg/kg) The test compound was administrated via oral, 30 minutes before administrating the chemotherapeutic 5-FU that was administrated via intraperitoneal. This treatment was followed for 5 days with once a day administrations. In the 5th treatment day, the animals were euthanized using one inhalational anesthetic (isoflurane) and the initial portion of the intestine (corresponding to jejunum and ileus) was collected for myeloperoxidase analysis (MPO) and histological analysis of the tissue, as well blood collect for quantification analysis of the uridine in the plasma. The animals were also followed-up regarding weight loss and diarrhea.

[2] = biological target: T1, Human Phosphorylase Uridine 1 (hUP1) (Homo sapiens, UniProt Q16831); assay: hUP1 enzymatic assay, inhibition at 1 μM (UV absorbance of uridine at 280 nm); type: biochemical; conditions: 1 μM compound, 37° C.
T1 sequence (Q16831 whole entry): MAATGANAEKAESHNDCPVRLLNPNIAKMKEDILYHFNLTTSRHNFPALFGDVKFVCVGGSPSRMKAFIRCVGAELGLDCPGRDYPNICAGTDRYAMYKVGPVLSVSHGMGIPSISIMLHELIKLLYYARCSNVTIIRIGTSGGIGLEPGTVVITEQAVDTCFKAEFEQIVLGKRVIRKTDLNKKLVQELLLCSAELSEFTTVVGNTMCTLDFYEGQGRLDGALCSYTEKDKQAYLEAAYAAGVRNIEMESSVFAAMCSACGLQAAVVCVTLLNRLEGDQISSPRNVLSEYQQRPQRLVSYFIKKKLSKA
Experimental: (§1) The enzymatic activity of the hUP1 is performed through the enzymatic essay using one spectrophotometer UV/visible where the absorbance reduction of uridine in 280 nm, for 1 min and at 37° C. was monitored.
For determining which inhibitors would be selected for determining the inhibition constant (Ki), one cut point of 1 μM was stipulated, where only those compounds that would inhibit more than 60% of the initial activity of the enzyme would be selected for this type of analysis (Table 1). From all compounds tested, 7 molecules had its inhibition above 60% with the concentration of 1 μM (Compounds c1, c2, c3, c4, c6, c12, and c13). All essays described on this patent application were performed for these compounds and for benzil acyclo uridine (BAU), in order to perform a direct comparison of the results achieved with the better in vitro inhibitor of the hUP1 described (standard).

hUP1-Pi = hUP1-Pi (Homo sapiens, UniProt Q16831); assay: isothermal titration microcalorimetry (ITC), enzyme complexed with substrate Pi; type: binding
hUP1-Pi, sequence (Q16831 whole entry): as above
Experimental: (§2) For determining the thermodynamic parameters (enthalpy variation—ΔH, entropy variation—ΔS, and free energy variation of Gibbs—ΔG) were performed compounds binding essays to the enzyme in different conditions: free enzyme, complexed enzyme with the substrate Pi, and the complexed enzyme with the product ribose-1-phosphate (R1P). For such analyses, it was used isothermal titration microcalorimetry (ITC) where the equipment monitors the difference of transferred heat, between the reference cell and the sample cell, when bindings are formed or broken during the binding process. The data analysis achieved was performed through the model One Set of Sites and the determination of ΔG and the dissociation constant (KD) were through the equations (IV) and (V) below, respectively: ΔG=ΔH−TΔS (IV) KD=1/Ka (V)

[3] = biological target: T1, Human Phosphorylase Uridine 1 (hUP1); assay: Ki and inhibition type from substrate saturation curves, double-reciprocal analysis; type: biochemical; conditions: for Inhibiting type for phosphate: substrate Pi; for Inhibition type for uridine: substrate uridine
Experimental: as §1
For determining Ki for the selected inhibitors, we performed saturation curves where the concentration of one of the substrates is fixed next to the Km and the concentration of another, varied until the saturation in fixed-varying concentrations of each one of the inhibitors.
(I) v=VA/[Ka(1+I/Kii)+A(1+Kis)] (II) v=VA/[A(1+I/Kis)+Ka] (III)

hUP1-R1P = hUP1-R1P (Homo sapiens, UniProt Q16831); assay: isothermal titration microcalorimetry (ITC), enzyme complexed with product ribose-1-phosphate; type: binding
hUP1-R1P, sequence (Q16831 whole entry): as above
Experimental: as §2

hUP1 = hUP1 (Homo sapiens, UniProt Q16831); assay: isothermal titration microcalorimetry (ITC), free enzyme; type: binding
hUP1, sequence (Q16831 whole entry): as above
Experimental: as §2

Structure (SMILES) | inhibition at 1 µM [2] [%] | Inhibition with 1 μM (%) [2] [%] | Inhibiting type for phosphate [3] | Inhibition type for uridine [3] | Kd (hUP1-R1P; hUP1-R1P 50 μM) [µM] | ΔG° (hUP1-R1P; hUP1-R1P 50 μM) [kcal/mol] | ΔH° (hUP1-R1P; hUP1-R1P 50 μM) [kcal/mol] | −TΔS (kcal/mol/deg) (hUP1-R1P; hUP1-R1P 50 μM) [kcal/mol] | Kd (hUP1-R1P; hUP1-R1P 150 μM) [µM] | ΔG° (hUP1-R1P; hUP1-R1P 150 μM) [kcal/mol] | ΔH° (hUP1-R1P; hUP1-R1P 150 μM) [kcal/mol] | −TΔS (kcal/mol/deg) (hUP1-R1P; hUP1-R1P 150 μM) [kcal/mol] | Kd (hUP1) [µM] | ΔG° (hUP1) [kcal/mol] | ΔH° (hUP1) [kcal/mol] | −TΔS (kcal/mol/deg) (hUP1) | further results
O=c1[nH]cc(F)c(=O)[nH]1 [Compound 5-FU, 5-fluorouracil, reference compound] | – | – | – | – | – | – | – | – | – | – | – | – | – | – | – | – | diarrhea ([1]; 5-FU 50 mg/kg intraperitoneal, once a day, all groups that received the chemotherapeutic): developed severe diarrhea; weight loss ([1]; 5-FU 50 mg/kg intraperitoneal, once a day, with or without the compound, day 1 vs day 6): had a weight loss and this was significant; intestinal villus (histological analysis) ([1]; group that received only 5-FU, 50 mg/kg intraperitoneal): villus totally damaged
N#Cc1c(-c2ccccc2)cc(O)[nH]c1=O [Compound c7] | 42 | – | – | – | – | – | – | – | – | – | – | – | – | – | – | – | –
O=c1[nH]cc(CNCCO)c(=O)[nH]1 [Compound c14] | 2 | – | – | – | – | – | – | – | – | – | – | – | – | – | – | – | –
Cc1c(CN(C)C)c(O)[nH]c(=O)c1C#N [c1] | – | 81 | Uncompetitive | Competitive | 7.4 ± 0.381 | -7.2 ± 0.4 | -22 ± 0.4 | 14 ± 0.7 | 10 ± 1.32 | -7.0 ± 0.9 | -23 ± 0.1 | 16 ± 2.1 | 4.2 ± 0.602 | -7.6 ± 1.1 | -6.7 ± 0.2 | 0.8 ± 0.1 | Kd (hUP1-Pi): 0.312 ± 0.073 µM; ΔG° (hUP1-Pi): -9.1 ± 2.1 kcal/mol; ΔH° (hUP1-Pi): -12 ± 0.2 kcal/mol; −TΔS (kcal/mol/deg) (hUP1-Pi): 2.6 ± 0.6 kcal/mol/deg
Cc1c(CNCC(O)CO)c(O)[nH]c(=O)c1C#N (stereo not shown) [c4] | > 60 | 78 | Uncompetitive | Competitive | 4.6 ± 0.344 | -7.5 ± 0.5 | -22 ± 0.5 | 14 ± 1.0 | 9.4 ± 1.04 | -7.1 ± 0.8 | -18 ± 0.8 | 11 ± 1.2 | 20 ± 2.63 | -6.7 ± 0.9 | -22 ± 2.2 | 15 ± 2.0 | Kd (hUP1-Pi): 0.263 ± 0.026 µM; ΔG° (hUP1-Pi): -9.3 ± 0.9 kcal/mol; ΔH° (hUP1-Pi): -19 ± 0.1 kcal/mol; −TΔS (kcal/mol/deg) (hUP1-Pi): 10 ± 1.0 kcal/mol/deg
Cc1c(CNC(CO)CO)c(O)[nH]c(=O)c1C#N [c6] | – | 82 | Uncompetitive | Competitive | 7 ± 0.661 | -7.3 ± 0.7 | -18 ± 0.4 | 10 ± 1.0 | 7 ± 2.12 | -7.3 ± 2.2 | -10 ± 1.0 | 3.3 ± 1.0 | 5.3 ± 0.674 | -7.4 ± 1.0 | – | 16 ± 2.0 | Kd (hUP1-Pi): 0.502 ± 0.083 µM; ΔG° (hUP1-Pi): -9.0 ± 1.5 kcal/mol; ΔH° (hUP1-Pi): -14 ± 0.2 kcal/mol; −TΔS (kcal/mol/deg) (hUP1-Pi): 5.0 ± 0.8 kcal/mol/deg

Further lines, with some results ahead:

inhibition at 1 µM [2] [%] | Inhibition with 1 μM (%) [2] [%] | Inhibiting type for phosphate [3] | Inhibition type for uridine [3] | Kd (hUP1-R1P; hUP1-R1P 50 μM) [µM] | ΔG° (hUP1-R1P; hUP1-R1P 50 μM) [kcal/mol] | ΔH° (hUP1-R1P; hUP1-R1P 50 μM) [kcal/mol] | −TΔS (kcal/mol/deg) (hUP1-R1P; hUP1-R1P 50 μM) [kcal/mol] | Kd (hUP1-R1P; hUP1-R1P 150 μM) [µM] | ΔG° (hUP1-R1P; hUP1-R1P 150 μM) [kcal/mol] | ΔH° (hUP1-R1P; hUP1-R1P 150 μM) [kcal/mol] | −TΔS (kcal/mol/deg) (hUP1-R1P; hUP1-R1P 150 μM) [kcal/mol] | Kd (hUP1) [µM] | ΔG° (hUP1) [kcal/mol] | ΔH° (hUP1) [kcal/mol] | −TΔS (kcal/mol/deg) (hUP1) | Structure (SMILES) | further results
49 | – | – | – | – | – | – | – | – | – | – | – | – | – | – | – | Cc1c(CN2CCCCC2)c(O)[nH]c(=O)c1C#N [Compound c5] | –
25 | – | – | – | – | – | – | – | – | – | – | – | – | – | – | – | CCc1cc(O)[nH]c(=O)c1C#N [Compound c8] | –
25 | – | – | – | – | – | – | – | – | – | – | – | – | – | – | – | CCN(CC)Cc1c(O)[nH]c(=O)c(C#N)c1C [Compound c9] | –
20 | – | – | – | – | – | – | – | – | – | – | – | – | – | – | – | CCCN(CCC)Cc1c(O)[nH]c(=O)c(C#N)c1C [Compound c10] | –
43 | – | – | – | – | – | – | – | – | – | – | – | – | – | – | – | Cc1c(Cc2ccccc2)c(O)[nH]c(=O)c1C#N [Compound c11] | –
> 60 | 80 | Uncompetitive | Competitive | 2.3 ± 0.423 | -8.0 ± 1.5 | -17 ± 0.6 | 9.5 ± 1.7 | 3.8 ± 0.553 | -7.6 ± 1.1 | -30 ± 1.5 | 23 ± 3.3 | 2 ± 0.221 | -8.0 ± 0.9 | -23 ± 0.5 | 14 ± 1.5 | Cc1c(CNCCO)c(O)[nH]c(=O)c1C#N [c2] | Kd (hUP1-Pi): 0.151 ± 0.034 µM; ΔG° (hUP1-Pi): -9.5 ± 2.1 kcal/mol; ΔH° (hUP1-Pi): -16 ± 0.2 kcal/mol; −TΔS (kcal/mol/deg) (hUP1-Pi): 6.4 ± 1.4 kcal/mol/deg
> 60 | 67 | Not Competitive | Not competitive | 0.108 ± 0.018 | -9.8 ± 1.6 | -15 ± 0.1 | 5.7 ± 0.9 | 0.127 ± 0.048 | -9.7 ± 3.7 | -18 ± 0.5 | 8.5 ± 3.2 | 2.9 ± 0.554 | -7.8 ± 1.5 | -9.6 ± 0.3 | 1.7 ± 0.3 | N#Cc1ccc(O)[nH]c1=O [c12] | –
– | 62 | Not competitive | Not competitive | 1.3 ± 0.197 | -8.1 ± 1.2 | -27 ± 0.7 | 19 ± 2.9 | 1.3 ± 0.435 | -8.0 ± 2.7 | -35 ± 2.1 | 27 ± 9.1 | 12 ± 1.82 | -6.9 ± 1.0 | -8.7 ± 0.7 | 1.7 ± 0.2 | Cc1cc(O)[nH]c(=O)c1C#N [c13] | –
